Reference: patent US20130237444A1, “GBM MOLECULAR CONTEXTS ASSOCIATED WITH PATIENT SURVIVAL” (Translational Genomics Research Institute, priority 2012, published 2013)

Experiments:
[1] = test system: Classical-mapped xenograft models; assay: Survival of drug-treated GBM mouse xenografts vs control, Classical-mapped; conditions: for frequency of xenograft models with survival difference NS (statistically Not Significant) / frequency of xenograft models with significantly longer survival than control (treatment-sensitive) / frequency of xenograft models with significantly shorter survival than control (treatment-resistant): Classical subtype, total 2 xenografts; for frequency of xenograft models with survival difference NS (statistically Not Significant): Cox regression; for frequency of xenograft models with significantly longer survival than control (treatment-sensitive) / frequency of xenograft models with significantly shorter survival than control (treatment-resistant): Cox regression p-value threshold 0.05
Procedure: (§1) Forty GBM mouse xenografts were used. […] These xenografts were also mapped to the four molecular subtypes: proneural, neural, classical, and mesenchymal.
(§2) Characterizing drug responsiveness for GBM subtypes using the mapped xenografts: Out of 40 xenograft models, 21 models were treated with 4 different treatments and their survival rates were compared against control groups.

[2] = test system: Mesenchymal-mapped xenograft models; assay: Survival of drug-treated GBM mouse xenografts vs control, Mesenchymal-mapped; conditions: for frequency of xenograft models with survival difference NS (statistically Not Significant) / frequency of xenograft models with significantly longer survival than control (treatment-sensitive) / frequency of xenograft models with significantly shorter survival than control (treatment-resistant): Mesenchymal subtype, total 4 xenografts; for frequency of xenograft models with survival difference NS (statistically Not Significant): Cox regression; for frequency of xenograft models with significantly longer survival than control (treatment-sensitive) / frequency of xenograft models with significantly shorter survival than control (treatment-resistant): Cox regression p-value threshold 0.05; for subtype-specific drug response (sensitivity or resistance): Mesenchymal-mapped xenograft models, survival analysis
Procedure: as §1, §2

[3] = test system: Proneural-mapped xenografts; assay: Survival of drug-treated GBM mouse xenografts vs control, Proneural-mapped; assay type: in vivo; conditions: Proneural subtype, total 2 xenografts; for frequency of xenograft models with survival difference NS (statistically Not Significant): Cox regression; for frequency of xenograft models with significantly longer survival than control (treatment-sensitive) / frequency of xenograft models with significantly shorter survival than control (treatment-resistant): Cox regression p-value threshold 0.05
Procedure: as §1, §2

[4] = test system: Neural-mapped xenograft models; assay: Survival of drug-treated GBM mouse xenografts vs control, Neural-mapped; assay type: in vivo; conditions: Neural subtype, total 3 xenografts; for frequency of xenograft models with survival difference NS (statistically Not Significant): Cox regression; for frequency of xenograft models with significantly longer survival than control (treatment-sensitive) / frequency of xenograft models with significantly shorter survival than control (treatment-resistant): Cox regression p-value threshold 0.05
Procedure: as §1, §2

Compound | frequency of xenograft models with survival difference NS (statistically Not Significant) [1] | frequency of xenograft models with significantly longer survival than control (treatment-sensitive) [1] | frequency of xenograft models with significantly shorter survival than control (treatment-resistant) [1] | subtype-specific drug response (sensitivity or resistance) ([1]; Classical-mapped xenograft models, survival analysis) | frequency of xenograft models with survival difference NS (statistically Not Significant) [2] | frequency of xenograft models with significantly longer survival than control (treatment-sensitive) [2] | frequency of xenograft models with significantly shorter survival than control (treatment-resistant) [2] | subtype-specific drug response (sensitivity or resistance) [2] | frequency of xenograft models with survival difference NS (statistically Not Significant) [3] | frequency of xenograft models with significantly longer survival than control (treatment-sensitive) [3] | frequency of xenograft models with significantly shorter survival than control (treatment-resistant) [3] | frequency of xenograft models with survival difference NS (statistically Not Significant) [4] | frequency of xenograft models with significantly longer survival than control (treatment-sensitive) [4] | frequency of xenograft models with significantly shorter survival than control (treatment-resistant) [4]
CNC(=O)c1cc(Oc2ccc(NC(=O)Nc3ccc(Cl)c(C(F)(F)F)c3)cc2)ccn1 [Sorafenib, sorafenib] | 1 | 0 | 1 | resistance | 1 | 1 | 2 | resistance | 1 | 1 | 0 | 3 | 0 | 0
Cn1nnc2c(C(N)=O)ncn2c1=O [TMZ, temozolomide] | 1 | 1 | 0 | – | 2 | 2 | 0 | – | 1 | 1 | 0 | 2 | 1 | 0
Cn1c(=O)n(-c2ccc(C(C)(C)C#N)cc2)c2c3cc(-c4cnc5ccccc5c4)ccc3ncc21 [BEZ235] | 2 | 0 | 0 | – | 3 | 0 | 1 | resistance | 1 | 1 | 0 | 3 | 0 | 0
